Reference: the NIST ThermoML archive (doi:10.1021/je300848z)
± gives the expanded uncertainty stated by the source.

Conditions: Liquid; for vapor or sublimation pressure: Ebulliometric method (Recirculating still)

## Cc1ccc(C)cc1 [1,4-dimethylbenzene]
379.85 K
  vapor or sublimation pressure: 40 ± 0.34 kPa

## CCCCC(CC)CCl (centres undefined) [1-chloro-2-ethylhexane]
371.05 K
  vapor or sublimation pressure: 9.9 ± 0.2 kPa
375.35 K
  vapor or sublimation pressure: 11.7 ± 0.2 kPa
385.85 K
  vapor or sublimation pressure: 17.1 ± 0.2 kPa
394.25 K
  vapor or sublimation pressure: 22.8 ± 0.2 kPa
399.5 K
  vapor or sublimation pressure: 27.1 ± 0.2 kPa
403.5 K
  vapor or sublimation pressure: 30.8 ± 0.2 kPa
405.85 K
  vapor or sublimation pressure: 33.2 ± 0.2 kPa
411.9 K
  vapor or sublimation pressure: 39.9 ± 0.2 kPa
412.05 K
  vapor or sublimation pressure: 40 ± 0.2 kPa
419.05 K
  vapor or sublimation pressure: 49.4 ± 0.3 kPa
425.2 K
  vapor or sublimation pressure: 59 ± 0.3 kPa
431.15 K
  vapor or sublimation pressure: 69.6 ± 0.3 kPa
436.65 K
  vapor or sublimation pressure: 80.7 ± 0.3 kPa
441.45 K
  vapor or sublimation pressure: 91.6 ± 0.3 kPa
445.4 K
  vapor or sublimation pressure: 101.3 ± 0.3 kPa
Equilibrium Still
  Normal boiling temperature: 172.2 ± 0.2 °C

## CCCCC(CC)CO (centres undefined) [2-ethyl-1-hexanol]
427.2 K
  vapor or sublimation pressure: 40 ± 0.34 kPa

## CN1CCCC1=O [N-methylpyrrolidone]
441.8 K
  vapor or sublimation pressure: 40 ± 0.34 kPa
